This note sets out measurements from ChEMBL document CHEMBL1201862, “PubChem BioAssay data set” (2004).

Common to all, as to assay: growth of human tumour cells (NCI), 48 h
In assay [1] the test system is NCI-H522.
In assay [2] the test system is MDA-N.
For assay [3], the system named is HOP-62.
Assay [4] deals with SF-268.
For assay [5], the system named is 786-0.
In assay [6] the test system is OVCAR-5.
Assay [7] concerns HCT-116.
In assay [8] the test system is U-251.
Assay [9] has as its system UACC-62.
Assay [10] has as its system OVCAR-3.
Assay [11] deals with IGROV-1.
Assay [12] has as its system SN12C.
Assay [13] deals with HCC 2998.
Assay [14] has as its system SF-295.
Assay [15] has as its system K562.
The subject of assay [16] is HCT-15.
For assay [17], the system named is OVCAR-4.
Assay [18] concerns SNB-75.
The test system of assay [19] is SF-539.

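Tested at 5 concentrations; 48 h exposure; 96-well plates; endpoints linearly interpolated, else capped at highest concentration. GI50 = concentration required for 50% inhibition of growth.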 Activity calls are given as the source filed them. Rule as the data show it: active = GI50 up to about 1.1 µM and inactive = higher.

`c1ccc2c(c1)C(=Nc1ccc(N=C3c4ccccc4-c4ccccc43)cc1)c1ccccc1-2`: the GI50 in assay [1], in [2], in assay [3], in assay [4], in [5] and in assay [6] was > 100 µM (inactive) each time. Besides, the GI50 in assay [7], in assay [8], in assay [9], in assay [10], in assay [11] and in assay [12] was > 100 µM (inactive) each time. Moreover, the GI50 is > 100 µM (inactive) in assay [13]; > 100 µM (inactive) in assay [14]; > 100 µM (inactive) in [15]; over 100 µM in assay [16]; > 100 µM (inactive) in assay [17].

`CC#CC(O)(C(=O)OC1CCC2CCC1N2C)C1CCCC1` (centres undefined): the GI50 in assay [1] was > 100 µM (inactive); in assay [2], > 100 µM (inactive); in assay [3], > 100 µM (inactive); in [4], > 100 µM (inactive); in assay [5], > 100 µM (inactive); in [6] it was > 10 µM (inactive). The GI50 is > 100 µM (inactive) in [7]; > 10 µM (inactive) in [8]; > 100 µM (inactive) in assay [9]; > 100 µM (inactive) in assay [18]; > 100 µM (inactive) in assay [10]; > 100 µM (inactive) in assay [11]. Besides, the GI50 in assay [12] is > 100 µM (inactive); in assay [13] it was > 100 µM (inactive); in [14], > 100 µM (inactive); in assay [19], > 100 µM (inactive); in assay [16], over 100 µM.

Turning to `O=C(/C(=N/Nc1cn[nH]c(=O)c1Cl)c1ccccc1)c1ccccc1`, the GI50 in [1] was 17.1 µM (inactive); in assay [2], 4.99 µM (inactive); in assay [3], 44.8 µM (inactive); in assay [5], 16 µM (inactive); in [7], 23.1 µM (inactive); in [8], 26.9 µM (inactive). For the same molecule, the GI50 is 16 µM (inactive) in [9]; 8.79 µM (inactive) in assay [18]; 18 µM (inactive) in [10]; 18.9 µM (inactive) in [11]; 27.4 µM (inactive) in assay [12]; 26.9 µM (inactive) in assay [13]. Also, the GI50 is 27.6 µM (inactive) in assay [14]; 22.6 µM (inactive) in [19]; 24.5 µM (inactive) in assay [15]; 12.6 µM in [16]; 41.7 µM (inactive) in [17].

Turning to `CC(C)[S+]1C2=C(CC(C)(C)CC2=O)[N-]c2ccccc21` (centres undefined), the GI50 in [1], in assay [2], in assay [3], in assay [4], in assay [5] and in assay [6] was > 100 µM (inactive) each time. The GI50 in assay [7], in [8], in [9], in assay [18], in [10] and in [11] was > 100 µM (inactive) each time. In addition, the GI50 in assay [12] was > 100 µM (inactive); in [13], > 100 µM (inactive); in assay [14], > 100 µM (inactive); in [15], > 100 µM (inactive); in assay [16], over 100 µM; in assay [17], > 100 µM (inactive).

Consider `Oc1ccc(Br)cc1/C=N/C1CCCCC1`, for which the GI50 in [1] was 55.3 µM (inactive); in [2], 34.8 µM (inactive); in assay [3] it was 45.4 µM (inactive); in assay [4], 10.6 µM (inactive); in [5] it was 22.9 µM (inactive); in assay [6], > 100 µM (inactive). Further, the GI50 in [7] was 12.4 µM (inactive); in [8], 12.4 µM (inactive); in assay [9], 32 µM (inactive); in assay [10], 13.1 µM (inactive); in assay [11], 24.1 µM (inactive); in assay [12] it was < 0.01 µM (active). Besides, the GI50 was 25.5 µM (inactive) in assay [13]; 41.8 µM (inactive) in assay [14]; 38.7 µM (inactive) in assay [19]; 17.7 µM (inactive) in [15]; 5.56 µM in assay [16]; 21.1 µM (inactive) in assay [17].

In the case of `COC(=O)C1=CC(=O)OC1(OO)c1ccccc1` (centres undefined), the GI50 in assay [1] was 30.3 µM (inactive); in assay [2], > 100 µM (inactive); in assay [5], 35.6 µM (inactive); in [6], > 100 µM (inactive); in [7], 88.3 µM (inactive); in [8] it was > 100 µM (inactive). Also, the GI50 in assay [9] is > 100 µM (inactive); in assay [18], 92.3 µM (inactive); in assay [10], > 100 µM (inactive); in assay [11], > 100 µM (inactive); in [12], > 100 µM (inactive); in [13], > 100 µM (inactive). Moreover, the GI50 in assay [14] was > 100 µM (inactive); in assay [19], > 100 µM (inactive); in [15], 33.5 µM (inactive); in assay [16], 54 µM; in [17], > 100 µM (inactive).

`COc1ccc(-c2cc(-c3ccccc3)[nH]c(=S)c2C#N)cc1`: the GI50 is 25.5 µM (inactive) in assay [1]; 31.1 µM (inactive) in assay [2]; 3.85 µM (inactive) in assay [3]; 38.2 µM (inactive) in [4]; 27.2 µM (inactive) in [5]; 62.1 µM (inactive) in assay [6]. Also, the GI50 in assay [7] was 34.9 µM (inactive); in assay [8] it was 25.8 µM (inactive); in [9], 19 µM (inactive); in assay [18], 31 µM (inactive); in assay [10] it was 11.9 µM (inactive); in assay [11] it was 26.4 µM (inactive). Besides, the GI50 in assay [12] was 41.2 µM (inactive); in assay [13] it was 28.2 µM (inactive); in assay [14], 27.4 µM (inactive); in assay [15] it was 22.8 µM (inactive); in assay [16], 34.7 µM; in [17] it was 38.6 µM (inactive).

On to `COc1ccc(/C=C2\c3cc(OC)c(OC)cc3CCN2C(=O)c2ccccc2)cc1OC`, for which the GI50 in assay [1] was 20.3 µM (inactive); in assay [2] it was 25 µM (inactive); in [3], 37.2 µM (inactive); in assay [4], 46.3 µM (inactive); in assay [5], 34.4 µM (inactive); in [6], 55 µM (inactive). The GI50 in [7] is 35.5 µM (inactive); in assay [8], 82.6 µM (inactive); in assay [9], 36.7 µM (inactive); in [18], 32 µM (inactive); in [10] it was 35.7 µM (inactive); in assay [11] it was > 100 µM (inactive). Also, the GI50 in assay [12] is 70.1 µM (inactive); in [13], 44.6 µM (inactive); in [14], 61.4 µM (inactive); in assay [19] it was 46.7 µM (inactive); in assay [15] it was 32.1 µM (inactive); in [16], 42.4 µM.

Turning to `COc1ccc(-c2nc(N)c(C#N)c3c2CCS(=O)(=O)c2ccc(C)cc2-3)cc1OC`, the GI50 is 8.87 µM (inactive) in [1]; 11.7 µM (inactive) in assay [2]; 33.2 µM (inactive) in assay [3]; 51.2 µM (inactive) in [4]; 29 µM (inactive) in assay [5]; 19.6 µM (inactive) in assay [6]. Besides, the GI50 is 31.5 µM (inactive) in assay [7]; 40.6 µM (inactive) in [8]; 15.2 µM (inactive) in assay [9]; 23.7 µM (inactive) in [18]; 39.6 µM (inactive) in assay [10]; 31.6 µM (inactive) in assay [11]. The GI50 is 50.2 µM (inactive) in assay [12]; 27.6 µM (inactive) in assay [13]; 10.7 µM (inactive) in assay [15]; 16.1 µM in [16]; 25.8 µM (inactive) in assay [17].

In the case of `CCN(CC)C(=S)SS(=O)(=O)c1ccc(Cl)cc1`, the GI50 in assay [1] is 0.0319 µM (active); in [2] it was 36.1 µM (inactive); in assay [3], 22.7 µM (inactive); in [4], 53 µM (inactive); in [5], 29.9 µM (inactive); in assay [6], 44 µM (inactive). Further, the GI50 is 30.3 µM (inactive) in [7]; 15.1 µM (inactive) in assay [8]; 20.5 µM (inactive) in assay [9]; 31.7 µM (inactive) in assay [10]; 20.2 µM (inactive) in assay [12]; > 100 µM (inactive) in assay [13]. In addition, the GI50 in assay [14] was 38.7 µM (inactive); in assay [19], 21.6 µM (inactive); in assay [15], 14.5 µM (inactive); in [16], 31.3 µM; in assay [17], 45.5 µM (inactive).

`CCN(CC)CCn1c(=O)c2c(C)c3oc4ccccc4oc3c(C)c2c1=O`: the GI50 in assay [1] is > 100 µM (inactive); in assay [2], > 100 µM (inactive); in [3], > 100 µM (inactive); in assay [4] it was > 100 µM (inactive); in [5], 48.2 µM (inactive); in [6], > 100 µM (inactive). In addition, the GI50 in [7], in assay [8], in assay [9], in assay [18], in assay [11] and in [12] was > 100 µM (inactive) in each case. Further, the GI50 in [13] is > 100 µM (inactive); in assay [14] it was > 100 µM (inactive); in assay [19] it was > 100 µM (inactive); in [15], > 100 µM (inactive); in assay [16], over 100 µM; in assay [17], > 100 µM (inactive).

On to `CN(C)/C=C/c1c2c(nc3ccccc13)C(=O)c1ccccc1C2=O`, for which the GI50 was 1.16 µM (inactive) in assay [1]; 0.483 µM (active) in [2]; 0.266 µM (active) in [3]; 1.77 µM (inactive) in assay [4]; 1.92 µM (inactive) in assay [5]; 3.15 µM (inactive) in assay [6]. The GI50 in [7] was 0.923 µM (active); in assay [8], 0.991 µM (active); in assay [9] it was 0.25 µM (active); in assay [11], 1.19 µM (inactive); in assay [12] it was 1.26 µM (inactive); in [13] it was 1.93 µM (inactive). The GI50 in [14] was 0.875 µM (active); in [19], 1.92 µM (inactive); in assay [15] it was 0.151 µM (active); in assay [16], 0.766 µM; in [17] it was 1.58 µM (inactive).
